Test results taken from publication PMC7055022, “A novel TLR7 agonist as adjuvant to stimulate high quality HBsAg-specific immune responses in an HBV mouse model” (Journal of Translational Medicine, 2020).

Biological target: T1, human TLR7 (hTLR7) (Homo sapiens, UniProt Q9NYK1)
T1 sequence (Q9NYK1 27-1049): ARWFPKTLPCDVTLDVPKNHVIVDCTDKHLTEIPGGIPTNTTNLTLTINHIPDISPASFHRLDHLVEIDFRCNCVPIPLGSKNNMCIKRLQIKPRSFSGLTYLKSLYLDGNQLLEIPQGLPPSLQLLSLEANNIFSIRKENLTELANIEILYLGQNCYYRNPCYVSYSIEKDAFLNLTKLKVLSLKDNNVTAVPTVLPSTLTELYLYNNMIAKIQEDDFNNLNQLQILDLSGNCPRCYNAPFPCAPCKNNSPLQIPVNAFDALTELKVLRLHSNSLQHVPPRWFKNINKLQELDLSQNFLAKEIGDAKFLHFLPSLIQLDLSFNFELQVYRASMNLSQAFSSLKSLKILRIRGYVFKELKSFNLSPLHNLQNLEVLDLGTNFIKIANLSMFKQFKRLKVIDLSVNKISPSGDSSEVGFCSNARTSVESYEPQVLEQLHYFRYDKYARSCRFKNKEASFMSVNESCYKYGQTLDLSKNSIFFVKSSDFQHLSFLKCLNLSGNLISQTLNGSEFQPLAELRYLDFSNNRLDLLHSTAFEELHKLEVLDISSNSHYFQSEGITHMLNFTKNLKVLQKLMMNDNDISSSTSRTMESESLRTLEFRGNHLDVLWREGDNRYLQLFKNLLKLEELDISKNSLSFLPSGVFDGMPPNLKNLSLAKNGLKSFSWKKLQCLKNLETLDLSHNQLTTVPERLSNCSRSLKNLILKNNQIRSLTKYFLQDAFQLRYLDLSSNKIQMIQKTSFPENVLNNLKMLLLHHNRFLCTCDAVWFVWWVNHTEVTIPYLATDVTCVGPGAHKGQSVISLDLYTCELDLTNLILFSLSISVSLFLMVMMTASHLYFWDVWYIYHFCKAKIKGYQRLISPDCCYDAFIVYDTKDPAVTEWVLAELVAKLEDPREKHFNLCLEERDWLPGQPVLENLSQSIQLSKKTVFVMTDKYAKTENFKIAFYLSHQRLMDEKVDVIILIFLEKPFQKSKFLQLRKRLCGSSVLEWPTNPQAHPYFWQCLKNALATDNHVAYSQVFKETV
Experiment: HEK-Blue hTLR7 SEAP/NF-κB reporter assay (agonist; inactive in hTLR8 cells)
Format: cell-based

## C=C(CC)C(=O)c1ccc(OCC(=O)NCc2ccc(Cn3c(O)nc4c(N)nc(OCCOC)nc43)cc2)c(Cl)c1Cl [compound 4, N-(4-((6-amino-8-hydroxy-2-(2-methoxyethoxy)-9H-purin-9-yl)methyl)benzyl)-2-(2,3-dichloro-4-(2-methylenebutanoyl)phenoxy)acetamide]
  HEK-Blue hTLR7 SEAP/NF-κB reporter assay (agonist; inactive in hTLR8 cells): T7-EA induced more potent SEAP reaction than T7 in HEK-Blue hTLR7 reporter cells
